Test results as given in patent US9365571B2, “Piperidino-pyrimidine derivatives for the treatment of viral infections” (Janssen Sciences Ireland UC, priority 2012, dated 2016).

Key:
Type in all cases: cell-based
human TLR7 = assay: TLR7 cellular NFκB-luc reporter assay in transiently transfected HEK293 cells; conditions: lowest effective concentration, 6 hours incubation
Experimental: (§1) The ability of compounds to activate human TLR7 and/or TLR8 was assessed in a cellular reporter assay using HEK293 cells transiently transfected with a TLR7 or TLR8 expression vector and NFκB-luc reporter construct. In one instance the TLR expression construct expresses the respective wild type sequence or a mutant sequence comprising a deletion in the second leucine-rich repeat of the TLR.
(§2) Briefly, HEK293 cells were grown in culture medium (DMEM supplemented with 10% FCS and 2 mM Glutamine). For transfection of cells in 10 cm dishes, cells were detached with Trypsin-EDTA, transfected with a mix of CMV-TLR7 or TLR8 plasmid (750 ng), NFκB-luc plasmid (375 ng) and a transfection reagent and incubated overnight at 37° C. in a humidified 5% CO2 atmosphere. Transfected cells were then detached with Trypsin-EDTA, washed in PBS and resuspended in medium to a density of 1.67×10^5 cells/mL. Thirty microliters of cells were then dispensed into each well in 384-well plates, where 10 μL of compound in 4% DMSO was already present. Following 6 hours incubation at 37° C., 5% CO2, the luciferase activity was determined by adding 15 μl of Steady Lite Plus substrate (Perkin Elmer) to each well and readout performed on a ViewLux ultraHTS microplate imager (Perkin Elmer). Dose response curves were generated from measurements performed in quadruplicates. Lowest effective concentrations (LEC) values, defined as the concentration that induces an effect which is at least two fold above the standard deviation of the assay, were determined for each compound.

human TLR8 = assay: TLR8 cellular NFκB-luc reporter assay in transiently transfected HEK293 cells; conditions: lowest effective concentration, 6 hours incubation
Experimental: as §1, §2

PBMC-IFNa = assay: PBMC-IFNa; conditions: Table IIC; lowest effective concentration; read-out: PBMC-IFNa (LEC)

| Structure (SMILES) | Human TLR7 (LEC, μM) (human TLR7; Table II A) [µM] | Human TLR8 (LEC, μM) (human TLR8; Table II A) [µM] | Human TLR7 (LEC, μM) (human TLR7; Table IIC) [µM] | Human TLR8 (LEC, μM) (human TLR8; Table IIC) [µM] | minimal effective concentration (PBMC-IFNa) [µM] | Human TLR7 (LEC, μM) (human TLR7; Table II B) [µM] | Human TLR8 (LEC, μM) (human TLR8; Table II B) [µM] |
| --- | --- | --- | --- | --- | --- | --- | --- |
| CCCCNc1nc(N)nc2c1CCN(C(=O)c1cnccn1)C2 [Compound 22] | 9.35 | 1.37 |  |  |  |  |  |
| CCCCNc1nc(N)nc2c1CCN(C(=O)c1csnn1)C2 [Compound 27] |  |  | >25 | 1.9 | 1.2 |  |  |
| CCCCNc1nc(N)nc2c1CCN(C(=O)c1nccc3ccccc13)C2 [Compound 37] |  |  | 7.2 | 1.7 | 1.8 |  |  |
| CCC[C@@H](CCO)Nc1nc(N)nc2c1CN(C(=O)c1ccccc1)CC2 [Compound 39] |  |  | 2.5 | 4.2 | 0.5 |  |  |
| CCCCNc1nc(N)nc2c1CN(C(=O)c1cc(C)on1)CC2 [Compound 34] |  |  | 0.8 | 0.4 | 0.2 |  |  |
| CCCCNc1nc(N)nc2c1CCN(C(=O)Cc1cccs1)C2 [Compound 9] | 1.60 | 0.46 |  |  |  |  |  |
| CCCC[C@@H](CCO)Nc1nc(N)nc2c1CN(C(=O)c1csc(C)n1)CC2 [Compound 44] |  |  | 1.0 | 6.6 | 0.2 |  |  |
| CCCCNc1nc(N)nc2c1CCN(C(=O)c1ccsc1)C2 [Compound 21] | 8.13 | 1.85 |  |  |  |  |  |
| CCCCNc1nc(N)nc2c1CCN(C(=O)c1cc(C)n(C)n1)C2 [Compound 10] | 2.04 | 0.71 |  |  |  |  |  |
| CCC[C@@H](CCO)Nc1nc(N)nc2c1CN(C(=O)c1csc(C)n1)CC2 [Compound 42] |  |  | 2.2 | 2.1 | 0.2 |  |  |
| CCC[C@@H](CCO)Nc1nc(N)nc2c1CCN(C(=O)c1ccncc1)C2 [Compound 52] |  |  | 12.1 | 15 |  |  |  |
| CCCCNc1nc(N)nc2c1CN(C(=O)C1CCOCC1)CC2 [Compound 31] |  |  | 7.7 | 0.6 | 1.3 |  |  |
| CCCC[C@@H](CCO)Nc1nc(N)nc2c1CN(C(=O)c1ccco1)CC2 [Compound 43] |  |  | 0.1 | 0.7 | 0.04 |  |  |
| CCCCNc1nc(N)nc2c1CCN(C(=O)C1CC1)C2 [Compound 4] | 6.82 | 0.47 |  |  |  |  |  |
| CCCCNc1nc(N)nc2c1CCN(C(=O)c1cc(C)on1)C2 [Compound 38] |  |  | 5.2 | 0.8 | 0.6 |  |  |
| CCCCNc1nc(N)nc2c1CN(C(=O)c1ccsc1)CC2 [Compound 33] |  |  | 0.3 | 0.2 | 0.2 |  |  |
| CCCCNc1nc(N)nc2c1CCN(C(=O)CC#N)C2 [Compound 23] | 11.62 | 2.67 |  |  |  |  |  |
| CCCCNc1nc(N)nc2c1CN(C(=O)C(C)C)CC2 [Compound 7] |  |  |  |  |  | 8.13 | 1.62 |
| CCC[C@@H](CCO)Nc1nc(N)nc2c1CN(C(=O)c1cccs1)CC2 [Compound 47] |  |  | 0.2 | 1.1 | 0.2 |  |  |
| CCCCNc1nc(N)nc2c1CCN(C(=O)c1ccccn1)C2 [Compound 19] | 6.59 | 0.83 |  |  |  |  |  |
| CCCC[C@@H](CCO)Nc1nc(N)nc2c1CN(C(=O)c1cccn1C)CC2 [Compound 51] |  |  | 0.5 | 0.4 | 0.1 |  |  |
| CCCCNc1nc(N)nc2c1CN(C(C)=O)CC2 [Compound 5] |  |  |  |  |  | 4.90 | 0.50 |
| CCCCNc1nc(N)nc2c1CCN(C(=O)[C@H](C)N)C2 [Compound 26] |  |  | 16.8 | 2.1 | 0.6 |  |  |
| CCCCNc1nc(N)nc2c1CCN(C(=O)c1cccn1C)C2 [Compound 3] | 0.79 | 0.60 |  |  |  |  |  |
| CCCCNc1nc(N)nc2c1CCN(C(=O)c1ccccc1)C2 [Compound 2] | 3.96 | 0.75 |  |  |  |  |  |
| CCCC[C@@H](CCO)Nc1nc(N)nc2c1CN(C(=O)c1cccs1)CC2 [Compound 45] |  |  | 0.2 | 1.7 | 0.2 |  |  |

| Structure (SMILES) | Human TLR7 (LEC, μM) (human TLR7; Table II A) [µM] | Human TLR8 (LEC, μM) (human TLR8; Table II A) [µM] | Human TLR7 (LEC, μM) (human TLR7; Table IIC) [µM] | Human TLR8 (LEC, μM) (human TLR8; Table IIC) [µM] | minimal effective concentration (PBMC-IFNa) [µM] | Human TLR7 (LEC, μM) (human TLR7; Table II B) [µM] | Human TLR8 (LEC, μM) (human TLR8; Table II B) [µM] |
| --- | --- | --- | --- | --- | --- | --- | --- |
| CCCCNc1nc(N)nc2c1CCN(C(=O)c1ccncc1)C2 [Compound 28] |  |  | 8.6 | 2.2 | 1.9 |  |  |
| CCCCNc1nc(N)nc2c1CCN(C(=O)c1cccs1)C2 [Compound 12] | 2.40 | 0.36 |  |  |  |  |  |
| CCCCNc1nc(N)nc2c1CCN(C(=O)c1nccn1C)C2 [Compound 18] | 6.16 | 0.96 |  |  |  |  |  |
| CCCCNc1nc(N)nc2c1CCN(C(=O)c1cocn1)C2 [Compound 36] |  |  | 4.7 | 0.9 | 0.6 |  |  |
| CCCCNc1nc(N)nc2c1CN(C(=O)Cc1cccs1)CC2 [Compound 6] |  |  |  |  |  | 3.45 | 0.88 |
| CCCCNc1nc(N)nc2c1CN(C(=O)c1cocn1)CC2 [Compound 35] |  |  | 0.7 | 0.2 | 0.2 |  |  |
| CCCCNc1nc(N)nc2c1CCN(C(=O)CC)C2 [Compound 30] |  |  | 5.0 | 0.5 | 0.5 |  |  |
| CCCCNc1nc(N)nc2c1CCN(C(=O)c1csc(N)n1)C2 [Compound 15] | 4.66 | 1.31 |  |  |  |  |  |
| CCCCNc1nc(N)nc2c1CCN(C(=O)c1cscn1)C2 [Compound 14] | 4.43 | 0.90 |  |  |  |  |  |
| CCC[C@@H](CCO)Nc1nc(N)nc2c1CN(C(=O)c1ccco1)CC2 [Compound 41] |  |  | 0.4 | 0.4 | 0.1 |  |  |
| CCCCNc1nc(N)nc2c1CCN(C(=O)[C@@H](N)C(C)C)C2 [Compound 25] |  |  | 20.0 | 1.8 | 1.1 |  |  |
| CCCCNc1nc(N)nc2c1CCN(C(=O)C1CCOCC1)C2 [Compound 29] |  |  | >25 | 7.5 | 8.7 |  |  |
| CCCCNc1nc(N)nc2c1CCN(C(=O)CC(F)(F)F)C2 [Compound 24] | 12.93 | 2.29 |  |  |  |  |  |
| CCCC[C@@H](CCO)Nc1nc(N)nc2c1CCN(C(=O)c1cccn1C)C2 [Compound 50] |  |  | 1.7 | 3.9 | 0.3 |  |  |
| CCCCNc1nc(N)nc2c1CN(C(=O)CC)CC2 [Compound 8] |  |  |  |  |  | 2.34 | 0.40 |
| CCC[C@@H](CCO)Nc1nc(N)nc2c1CCN(C(=O)c1cccn1C)C2 [Compound 49] |  |  | 2.7 | 4.0 | 0.3 |  |  |
| CCCCNc1nc(N)nc2c1CCN(C(=O)C(C)C)C2 [Compound 13] | 3.21 | 0.85 |  |  |  |  |  |
| CCCCNc1nc(N)nc2c1CN(C(=O)CC#N)CC2 [Compound 32] |  |  | 7.1 | 0.6 | 0.9 |  |  |
| CCCCNc1nc(N)nc2c1CCN(C(=O)C1CCC1)C2 [Compound 11] | 2.10 | 0.51 |  |  |  |  |  |
| CCCC[C@@H](CCO)Nc1nc(N)nc2c1CN(C(=O)c1ccccc1)CC2 [Compound 48] |  |  | 1.2 | 3.9 | 0.3 |  |  |
| CCC[C@@H](CCO)Nc1nc(N)nc2c1CN(C(=O)c1cscn1)CC2 [Compound 40] |  |  | 2.2 | 4.5 | 0.2 |  |  |
| CCCCNc1nc(N)nc2c1CCN(C(C)=O)C2 [Compound 17] | 5.82 | 0.43 |  |  |  |  |  |
| CCCCNc1nc(N)nc2c1CCN(C(=O)COC)C2 [Compound 16] | 5.37 | 1.49 |  |  |  |  |  |
| CCCCNc1nc(N)nc2c1CCN(C(=O)c1sccc1Cl)C2 [Compound 20] | 7.15 | 0.68 |  |  |  |  |  |
| CCCCNc1nc(N)nc2c1CN(C(=O)C1CCC1)CC2 [Compound 1] |  |  |  |  |  | 0.83 | 0.32 |
| CCCC[C@@H](CCO)Nc1nc(N)nc2c1CN(C(=O)c1cscn1)CC2 [Compound 46] |  |  | 0.6 | 3.5 | 0.2 |  |  |
